Test results: PubChem BioAssay AID248 (DTP/NCI, 2004)
“And” between values parts separate entries of the source, which are not always exact repeats. Identical values can stand only once. Toxic doses and inconclusive results are not listed. No stated cut-off is given here; in the data, active means T/C of 150% or more; inactive means T/C below 125%.

System: L1210 leukemia ip in BDF1 mice, survival T/C
Assay: NCI In Vivo Anticancer Drug Screen. Data for tumor model L1210 Leukemia (intraperitoneal) in B6D2F1 (BDF1) mice
Details: higher = longer survival
Outline: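 Mice bearing the transplanted tumor received compound or vehicle. Survival of the treated group was divided by that of the vehicle-treated control group to give the ratio.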

[1] = endpoint: mean survival time, dose: 12.5 mg/kg/injection, schedule: Q01DX009 (ip), vehicle: Klucel (hydroxypropylcellulose) (HPC)
[2] = endpoint: mean survival time, dose: 25.0 mg/kg/injection, schedule: Q01DX009 (ip), vehicle: Klucel (hydroxypropylcellulose) (HPC)
[3] = endpoint: mean survival time, dose: 100.0 mg/kg/injection, schedule: Q01DX001 (ip), vehicle: saline
[4] = endpoint: mean survival time, dose: 200.0 mg/kg/injection, schedule: Q01DX001 (ip), vehicle: saline
[5] = endpoint: mean survival time, dose: 400.0 mg/kg/injection, schedule: Q01DX001 (ip), vehicle: saline
[6] = endpoint: mean survival time, dose: 100.0 mg/kg/injection, schedule: Q04DX003 (ip), vehicle: Klucel (hydroxypropylcellulose) (HPC)
[7] = endpoint: mean survival time, dose: 100.0 mg/kg/injection, schedule: Q01DX001 (ip), vehicle: carboxymethylcellulose (CMC)
[8] = endpoint: mean survival time, dose: 200.0 mg/kg/injection, schedule: Q01DX001 (ip), vehicle: carboxymethylcellulose (CMC)
[9] = endpoint: mean survival time, dose: 400.0 mg/kg/injection, schedule: Q01DX001 (ip), vehicle: carboxymethylcellulose (CMC)

Measured: T/C

O=C(Nc1ccc(S(=O)(=O)Nc2ccc(N=Nc3ccccc3)cc2)cc1)C(SC1=NC=NC2=NC=NC21)(SC1=NC=NC2=NC=NC21)SC1=NC=NC2=NC=NC21 (centres undefined)
inactive: endpoint: mean survival time, dose: 75.0 mg/kg/injection, schedule: Q04DX003 (ip), vehicle: saline 104 % of control | endpoint: mean survival time, dose: 150.0 mg/kg/injection, schedule: Q04DX003 (ip), vehicle: saline 109 % of control | endpoint: mean survival time, dose: 300.0 mg/kg/injection, schedule: Q04DX003 (ip), vehicle: saline 100 % of control

Oc1ccccc1/C=N\Sc1ccc(Br)cc1
inactive: endpoint: mean survival time, dose: 100.0 mg/kg/injection, schedule: Q04DX002 (ip), vehicle: saline with Tween-80 112 % of control | endpoint: mean survival time, dose: 200.0 mg/kg/injection, schedule: Q04DX002 (ip), vehicle: saline with Tween-80 91 % of control | endpoint: mean survival time, dose: 400.0 mg/kg/injection, schedule: Q04DX002 (ip), vehicle: saline with Tween-80 94 % of control

CCc1c(CNc2ccc(C(=O)NC(CCC(=O)O)C(=O)O)cc2)ccc2nc(N)nc(N)c12 (centres undefined)
inactive: endpoint: mean survival time, dose: 0.12 mg/kg/injection, schedule: Q01DX003 (ip), vehicle: saline 89 % of control | endpoint: mean survival time, dose: 4.0 mg/kg/injection, schedule: Q01DX009 (ip), vehicle: saline 88 % of control | endpoint: mean survival time, dose: 2.5 micrograms/kg/injection, schedule: Q01DX009 (ip), vehicle: saline 101 % of control | endpoint: mean survival time, dose: 5.0 micrograms/kg/injection, schedule: Q01DX009 (ip), vehicle: saline 111 % of control | endpoint: mean survival time, dose: 10.0 micrograms/kg/injection, schedule: Q01DX009 (ip), vehicle: saline 113 % of control

[Cl][Hg][c]1cccs1
inactive: [1] 95 % of control | [2] 93 % of control

NCCc1ccc(N)cc1
inactive: [3] 106 % of control and 92 % of control | endpoint: mean survival time, dose: 100.0 mg/kg/injection, schedule: Q04DX003 (ip), vehicle: saline 95 % of control | [4] 106 % of control and 89 % of control | endpoint: mean survival time, dose: 200.0 mg/kg/injection, schedule: Q04DX003 (ip), vehicle: saline 98 % of control | [5] 97 % of control and 92 % of control | endpoint: mean survival time, dose: 400.0 mg/kg/injection, schedule: Q04DX003 (ip), vehicle: saline 101 % of control

COc1nc(N)c(C#N)cc1C#N
inactive: [1] 96 % of control | [2] 102 % of control | endpoint: mean survival time, dose: 50.0 mg/kg/injection, schedule: Q01DX009 (ip), vehicle: Klucel (hydroxypropylcellulose) (HPC) 93 % of control | [6] 92 % of control

CCCCCCCCCc1cc(C)cc(Cc2cc(C)cc(CCCCCCCCC)c2O)c1O
inactive: [3] 98 % of control | [4] 98 % of control | [5] 101 % of control

CC(=O)NCc1cc2c3c(c1)CCCN3CCC2
inactive: endpoint: mean survival time, dose: 50.0 mg/kg/injection, schedule: Q01DX009 (ip), vehicle: saline with Tween-80 97 % of control | endpoint: mean survival time, dose: 100.0 mg/kg/injection, schedule: Q01DX009 (ip), vehicle: saline with Tween-80 90 % of control | endpoint: mean survival time, dose: 100.0 mg/kg/injection, schedule: Q04DX003 (ip), vehicle: saline with Tween-80 90 % of control | endpoint: mean survival time, dose: 200.0 mg/kg/injection, schedule: Q01DX009 (ip), vehicle: saline with Tween-80 94 % of control | endpoint: mean survival time, dose: 200.0 mg/kg/injection, schedule: Q04DX003 (ip), vehicle: saline with Tween-80 100 % of control

O=C1N(Br)C(=O)C(c2ccc(Cl)cc2)(c2ccc(Cl)cc2)N1Br
inactive: endpoint: mean survival time, dose: 15.0 mg/kg/injection, schedule: Q01DX015 (ip), vehicle: carboxymethylcellulose (CMC) 89 % of control | endpoint: mean survival time, dose: 30.0 mg/kg/injection, schedule: Q01DX015 (ip), vehicle: carboxymethylcellulose (CMC) 93 % of control | endpoint: mean survival time, dose: 60.0 mg/kg/injection, schedule: Q01DX015 (ip), vehicle: carboxymethylcellulose (CMC) 88 % of control | [7] 95 % of control | endpoint: mean survival time, dose: 100.0 mg/kg/injection, schedule: Q01DX009 (ip), vehicle: saline sonified 113 % of control | [6] 99 % of control | endpoint: mean survival time, dose: 120.0 mg/kg/injection, schedule: Q01DX015 (ip), vehicle: carboxymethylcellulose (CMC) 93 % of control | [8] 90 % of control | endpoint: mean survival time, dose: 200.0 mg/kg/injection, schedule: Q01DX009 (ip), vehicle: saline sonified 106 % of control | endpoint: mean survival time, dose: 200.0 mg/kg/injection, schedule: Q04DX003 (ip), vehicle: Klucel (hydroxypropylcellulose) (HPC) 94 % of control | endpoint: mean survival time, dose: 240.0 mg/kg/injection, schedule: Q01DX015 (ip), vehicle: carboxymethylcellulose (CMC) 95 % of control | endpoint: mean survival time, dose: 360.0 mg/kg/injection, schedule: Q01DX015 (ip), vehicle: carboxymethylcellulose (CMC) 98 % of control | [9] 104 % of control | endpoint: mean survival time, dose: 400.0 mg/kg/injection, schedule: Q01DX009 (ip), vehicle: saline sonified 99 % of control | endpoint: mean survival time, dose: 400.0 mg/kg/injection, schedule: Q04DX003 (ip), vehicle: Klucel (hydroxypropylcellulose) (HPC) 100 % of control

CN(C)c1ccc(N=C2C(c3ccccc3)=CC(c3ccccc3)=C2c2ccccc2)cc1
inactive: endpoint: mean survival time, dose: 50.0 mg/kg/injection, schedule: Q01DX001 (ip), vehicle: carboxymethylcellulose (CMC) 89 % of control | [7] 91 % of control | [8] 94 % of control | [9] 97 % of control

NC(N)=N/N=C/C(N)(/C=N/N=C(N)N)/C=N/N=C(N)N
inactive: endpoint: mean survival time, dose: 120.0 mg/kg/injection, schedule: Q01DX Z (oral), vehicle: saline 106 % of control | endpoint: mean survival time, dose: 240.0 mg/kg/injection, schedule: Q01DX Z (oral), vehicle: saline 114 % of control | endpoint: mean survival time, dose: 480.0 mg/kg/injection, schedule: Q01DX Z (oral), vehicle: saline 113 % of control | endpoint: mean survival time, dose: 960.0 mg/kg/injection, schedule: Q01DX Z (oral), vehicle: saline 106 % of control

C=CCc1cccc(OC)c1OCCN(CC)CC
inactive: endpoint: mean survival time, dose: 6.25 mg/kg/injection, schedule: Q01DX009 (ip), vehicle: saline 111 % of control | endpoint: mean survival time, dose: 12.5 mg/kg/injection, schedule: Q01DX009 (ip), vehicle: saline 102 % of control | endpoint: mean survival time, dose: 25.0 mg/kg/injection, schedule: Q01DX009 (ip), vehicle: saline 100 % of control

CCOC(=O)c1[nH]c(-c2ccccc2)c(/C=N\O)c1-c1ccccc1
inactive: endpoint: mean survival time, dose: 50.0 mg/kg/injection, schedule: Q01DX001 (ip), vehicle: Klucel (hydroxypropylcellulose) (HPC) 105 % of control | endpoint: mean survival time, dose: 100.0 mg/kg/injection, schedule: Q01DX001 (ip), vehicle: Klucel (hydroxypropylcellulose) (HPC) 100 % of control | endpoint: mean survival time, dose: 200.0 mg/kg/injection, schedule: Q01DX001 (ip), vehicle: Klucel (hydroxypropylcellulose) (HPC) 93 % of control

CCC1=C(C)CN(C)c2ccccc21
inactive: [3] 100 % of control | [4] 100 % of control | [5] 94 % of control

Cc1ccc2c(c1)P(=O)(O)c1cc(Cl)ccc1O2
inactive: endpoint: mean survival time, dose: 50.0 mg/kg/injection, schedule: Q01DX009 (ip), vehicle: saline 98 % of control | endpoint: mean survival time, dose: 100.0 mg/kg/injection, schedule: Q01DX009 (ip), vehicle: saline 100 % of control | endpoint: mean survival time, dose: 200.0 mg/kg/injection, schedule: Q01DX009 (ip), vehicle: saline 102 % of control | endpoint: mean survival time, dose: 400.0 mg/kg/injection, schedule: Q01DX009 (ip), vehicle: saline 98 % of control | endpoint: median survival time, dose: 64.8 mg/kg/injection, schedule: Q01DX009 (ip), vehicle: water 109 % of control | endpoint: median survival time, dose: 108.0 mg/kg/injection, schedule: Q01DX009 (ip), vehicle: water 107 % of control | endpoint: median survival time, dose: 130.0 mg/kg/injection, schedule: Q04DX003 (ip), vehicle: water 103 % of control | endpoint: median survival time, dose: 180.0 mg/kg/injection, schedule: Q01DX009 (ip), vehicle: water 109 % of control | endpoint: median survival time, dose: 216.0 mg/kg/injection, schedule: Q04DX003 (ip), vehicle: water 102 % of control | endpoint: median survival time, dose: 300.0 mg/kg/injection, schedule: Q01DX009 (ip), vehicle: water 112 % of control | endpoint: median survival time, dose: 360.0 mg/kg/injection, schedule: Q04DX003 (ip), vehicle: water 103 % of control
